One series concerns Papain. Nature of the series: Papain (a Cathepsin B surrogate). As to conditions: up to 96 hours.
Series [1] in a line: Comparative repeat-dose rat toxicity study. In kind it is in vivo. Particulars: DAR 8 on Trastuzumab backbone, 20 or 60 mg/kg; for tolerability: IV once every 3 weeks, two doses.
Series [2] in a line: Control incubation in buffer without S9. In kind it is in vitro ADME.
Method: The control incubations include each ADC without the addition of S9.
The next series has as its system HexA DNA fragment. Nature of the series: DNA footprinting. In kind it is binding. Particulars: for DNA-binding site sequence: X any base, W adenine or thymine. Here is the method:
Footprinting reactions were performed as using previously described methods using the DNA fragments HexA and HexB, which together contain all 64 symmetrical hexanucleotide sequences, and MS1 that contains all possible […] tetranucleotide sequences. The DNA fragments were obtained by cutting the parent plasmids with HindIII and SacI (for HexA and MS1) or EcoRI and PstI (for HexB), and were labelled at the “-end of the HindIII or EcoRI sites with [α-^32P]dATP using reverse transcriptase or exo− Klenow fragment. After gel purification, the radiolabelled DNA was dissolved in 10 mM Tris-HCl pH 7.5 containing 0.1 mM EDTA, at a concentration of about 10 c.p.s per μL as determined on a hand held Geiger counter. 1.5 μL of radiolabelled DNA was mixed with 1.5 μL ligand that had been freshly diluted in 10 mM Tris-HCl pH 7.5, containing 10 mM NaCl. The complexes were left to equilibrate for at least 12 hours before digesting with 2 μL dNase I (final concentration about 0.01 units/mL). The reactions were stopped after 1 minute by adding 4 μL of formamide containing 10 mM EDTA and bromophenol blue (0.1% w/v). The samples were then heated at 100° C. for 3 minutes before loading onto 8% denaturing polyacrylamide gels containing 8 M urea. Gels were fixed in 10% acetic acid, transferred to 3 MM paper, dried and exposed to a phosphor screen overnight, before analysing with a Typhoon phosphorimager
The DNA sequence selectivity profile of the molecules was investigated using a modification of a previously established DNA footprinting assay. Following an overnight incubation of the ligand-DNA complexes, the mixture was mixed with strand separation buffer containing 10 mM EDTA, 10 mM NaOH, 0.1% bromophenol blue, 80% formamide and incubated at 100° C. for 3 min. The mixture was then immediately cooled on ice and run on an 8% denaturing gel. […] The possible adducts formed within the HexA sequences are shown in FIGS. 20 and 21, respectively.

The subject of series [3] is linear double-stranded TyrT fragment. Nature of the series: DNA cross-linking assay. Particulars: overnight incubation at 37° C., 10 μM to 0.1 nM. The class given is biochemical. Here is the method:
After overnight incubation, the samples were mixed with 7 μL loading solution (80% formamide containing 10 mM EDTA, 10 mM NaOH, 0.1% bromophenol blue) and incubated at 65° C. for 5 min. Control 1 (C1) for native double-stranded DNA consisted of 1.5 μL labelled DNA, 1.5 μL 10 mM Tris-HCl, pH 7.5 containing 0.1 mM EDTA and 7 μL 1× loading dye. Control 2 (C2) for denatured native single-stranded DNA was composed of 1.5 μL labelled DNA, 1.5 μL 10 mM Tris-HCl, pH 7.5 containing 0.1 mM EDTA which was incubated at 65° C. for 5 min. Control 3 (C3) for native double-stranded DNA consisted of 1.5 μL labelled DNA, 1.5 μL 10 mM Tris-HCl, pH 7.5 containing 0.1 mM EDTA and 7 μL SSB. Control 4 (C4) for denatured native single-stranded DNA was composed of 1.5 μL labelled DNA, 1.5 μL 10 mM Tris-HCl, pH 7.5 containing 0.1 mM EDTA and 7 μL SSB which was incubated at 65° C. for 5 min. Separation was performed on a 7.5% denaturing polyacrylamide gel (20 cm long, 0.3 mm thick) at 500V for about 4 h until the dye reached the bottom of the gel. The gel plates were then separated, the gels fixed by immersing in 10% (v/v) acetic acid, followed by transfer to Whatmann 3 MM paper and drying under vacuum at 80° C. […]
The ability of 26 to cross-link DNA was evaluated using an assay involving a linear double-stranded TyrT fragment (FIG. 17). […]

For series [4] the following is noted: cited from earlier work.
The nature of series [5]: Buffer without S9 (50 mM Na-acetate, pH 5.0). Particulars: 37° C., up to 24 h.
The nature of series [6]: Pooled liver S9 fraction, 50 mM Na-acetate, pH 5.0. Particulars: 37° C., up to 24 h.

Entries after “also recorded” stand apart in the source; their conditions may differ.

Turning to “1-(3-(2,5-Dioxo-2,5-dihydro-1H-pyrrol-1-yl)propanamido)-N-((2S)-1-(((2S)-1-(((1S,9S)-9-ethyl-5-fluoro-9-hydroxy-4-methyl-10,13-dioxo-2,3,9,10,12,13,13a,14-octahydro-1H-benzo[de]pyrano[″,″:5,6]indeno[1,2-b]quinolin-1-yl)amino)-1-oxopropan-2-yl)amino)-3-methyl-1-oxobutan-2-yl)-3,6,9,12,15,18,21,24-octaoxaheptacosan-27-amide”, in the series on Papain, the fragment found entry is reported as “Val-Ala-Exatecan” and the not cleaved result is listed as “the free payload was not liberated”.

With `CC[C@@]1(O)C(=O)OCc2c1cc1n(c2=O)Cc2c-1nc1cc(F)c(C)c3c1c2[C@@H](NC(=O)[C@H](C)NC(=O)[C@@H](NC(=O)CCOCCOCCOCCOCCOCCOCCOCCOCCNC(=O)CCN1C(=O)C=CC1=O)C(C)C)CC3` [Compound 30, 1-(3-(2,5-Dioxo-2,5-dihydro-1H-pyrrol-1-yl)propanamido)-N-((2S)-1-(((2S)-1-(((1S,9S)-9-ethyl-5-fluoro-9-hydroxy-4-methyl-10,13-dioxo-2,3,9,10,12,13,13a,14-octahydro-1H-benzo[de]pyrano[″,″:5,6]indeno[1,2-b]quinolin-1-yl)amino)-1-oxopropan-2-yl)amino)-3-methyl-1-oxobutan-2-yl)-3,6,9,12,15,18,21,24-octaoxaheptacosan-27-amide], the “changes in hemopoietic system / red cell parameters” value in series [1] is “negligible effects”. In addition, in series [1], the tolerability entry is “well tolerated”. The “LC/MS peak area of released payload (exatecan; 4NH2-exatecan; DXd; DM1)” value in series [2] (Buffer without S9, 180 min) is 26,179; in series [2] (Buffer without S9, 360 min) it was 51,267; in series [2] (Buffer without S9, 1440 min), 59,452.

In the case of `CC[C@@]1(O)C(=O)OCc2c1cc1n(c2=O)Cc2c-1nc1cc(F)c(C)c3c1c2[C@@H](NC(=O)CO)CC3` [Dxd, reference compound], the tolerability entry in series [1] is on record as “well tolerated”.

Regarding `C=CCOC(=O)N1c2cc(OCCCC(=O)Nc3cc(C(=O)Nc4ccc(NC(=O)C(F)(F)F)cc4)n(C)c3)c(OC)cc2C(=O)N2CCCC[C@H]2C1OC1CCCCO1` (stereo partly drawn) [Formula 17, Allyl (6aS)-2-methoxy-3-(4-((1-methyl-5-((4-(2,2,2-trifluoroacetamido)phenyl)carbamoyl)-1H-pyrrol-3-yl)amino)-4-oxobutoxy)-12-oxo-6-((tetrahydro-2H-pyran-2-yl)oxy)-6,6a,7,8,9,10-hexahydrobenzo[e]pyrido[1,2-a][1,4]diazepine-5(12H)-carboxylate], the DNA-binding site sequence entry in the series on HexA DNA fragment is given as “XGXWWWW”.

For `COc1cc2c(cc1OCCCC(=O)Nc1cc(C(=O)Nc3ccc(N)cc3)n(C)c1)N=C[C@@H]1CCCCN1C2=O` [Formula 19, (S)—N-(4-Aminophenyl)-4-(4-((2-methoxy-12-oxo-6a,7,8,9,10,12-hexahydrobenzo[e]pyrido[1,2-a][1,4]diazepin-3-yl)oxy)butanamido)-1-methyl-1H-pyrrol-2-carboxamide], in series [3], the DNA interstrand cross-linking result was “incapable of cross-linking DNA”.

On to `COc1cc2c(cc1OCCCC(=O)Nc1cc(C(=O)Nc3ccc(-c4cc(C(=O)Nc5ccc(N)cc5)n(C)c4)cc3)n(C)c1)N=C[C@@H]1CCCCN1C2=O` [Formula 26, (S)—N-(4-aminophenyl)-4-(4-(4-(4-((2-methoxy-12-oxo-6a,7,8,9,10,12-hexahydrobenzo[e]pyrido[1,2-a][1,4]diazepin-3-yl)oxy)butanamido)-1-methyl-1H-pyrrol-2-carboxamido)phenyl)-1-methyl-1H-pyrrol-2-carboxamide], for which the DNA interstrand cross-linking result in series [3] is recorded as “Cross-links are not detectable at any concentration”. In the series with HexA DNA fragment (DNase I footprinting), the “preferred binding sites in HexA” value is given as “only five preferred sites”. Also, in the series on HexA DNA fragment, the DNA-binding site sequence entry was “XGXWWWW”.

Adcetris: the “ADC cyno t112” value in series [4] is 45 to 72 h.

Trastuzumab-Mal-GGFG-Dxd: the fragment found result in series [5] is reported as “DXd, minor, 0 min; also recorded: exatecan, minor”; in series [6] (Cynomolgus monkey), “DXd, minor, 0 min; also recorded: Cys-Mc-GGFG-DXd; also recorded: exatecan, minor”; in series [6] (Human) it was “DXd, 0 min; also recorded: Cys-Mc-GGFG-DXd; also recorded: exatecan, minor”.
